Experimental data taken from US20250090540A1, “PI3K-ALPHA INHIBITORS AND METHODS OF USE THEREOF” (Relay Therapeutics, Inc., priority 2021, published 2025).

Each molecule was assayed against H1047R PIK3CA enzyme (Homo sapiens, UniProt P42336, H1047R) (assay: ADP-Glo Biochemical PIK3CA Kinase Assay). Conditions: not given.
Method: Compounds to be assayed were plated in 16 doses of 1:2 serial dilutions (20 nL volume each well) on a 1536-well plate, and the plate warmed to room temperature. PIK3CA enzyme (e.g. H1047R, E542K, E545K, or wild-type) (1 μL of 2 nM solution in Enzyme Assay Buffer (comprising 50 mM HEPES pH 7.4, 50 mM NaCl, 6 mM MgCl2, 5 mM DTT and 0.03% CHAPS)) was added and shaken for 10 seconds and preincubated for 30 minutes. To the well was added 1 μL of 200 μM ATP and 20 μM of diC8-PIP2 in Substrate Assay Buffer (50 mM HEPES pH7.4, 50 mM NaCl, 5 mM DTT and 0.03% CHAPS) to start the reaction, and the plate was shaken for 10 seconds, then spun briefly at 1500 rpm, and then incubated for 60 minutes at room temperature. The reaction was stopped by adding 2 μL of ADP-Glo reagent (Promega), and spinning briefly at 1500 rpm, and then incubating for 40 minutes. ADP-Glo Detection reagent (Promega) was added and the plate spun briefly at 1500 rpm, then incubated for 30 minutes.

H1047R PIK3CA enzyme, sequence (P42336 whole entry H1047R): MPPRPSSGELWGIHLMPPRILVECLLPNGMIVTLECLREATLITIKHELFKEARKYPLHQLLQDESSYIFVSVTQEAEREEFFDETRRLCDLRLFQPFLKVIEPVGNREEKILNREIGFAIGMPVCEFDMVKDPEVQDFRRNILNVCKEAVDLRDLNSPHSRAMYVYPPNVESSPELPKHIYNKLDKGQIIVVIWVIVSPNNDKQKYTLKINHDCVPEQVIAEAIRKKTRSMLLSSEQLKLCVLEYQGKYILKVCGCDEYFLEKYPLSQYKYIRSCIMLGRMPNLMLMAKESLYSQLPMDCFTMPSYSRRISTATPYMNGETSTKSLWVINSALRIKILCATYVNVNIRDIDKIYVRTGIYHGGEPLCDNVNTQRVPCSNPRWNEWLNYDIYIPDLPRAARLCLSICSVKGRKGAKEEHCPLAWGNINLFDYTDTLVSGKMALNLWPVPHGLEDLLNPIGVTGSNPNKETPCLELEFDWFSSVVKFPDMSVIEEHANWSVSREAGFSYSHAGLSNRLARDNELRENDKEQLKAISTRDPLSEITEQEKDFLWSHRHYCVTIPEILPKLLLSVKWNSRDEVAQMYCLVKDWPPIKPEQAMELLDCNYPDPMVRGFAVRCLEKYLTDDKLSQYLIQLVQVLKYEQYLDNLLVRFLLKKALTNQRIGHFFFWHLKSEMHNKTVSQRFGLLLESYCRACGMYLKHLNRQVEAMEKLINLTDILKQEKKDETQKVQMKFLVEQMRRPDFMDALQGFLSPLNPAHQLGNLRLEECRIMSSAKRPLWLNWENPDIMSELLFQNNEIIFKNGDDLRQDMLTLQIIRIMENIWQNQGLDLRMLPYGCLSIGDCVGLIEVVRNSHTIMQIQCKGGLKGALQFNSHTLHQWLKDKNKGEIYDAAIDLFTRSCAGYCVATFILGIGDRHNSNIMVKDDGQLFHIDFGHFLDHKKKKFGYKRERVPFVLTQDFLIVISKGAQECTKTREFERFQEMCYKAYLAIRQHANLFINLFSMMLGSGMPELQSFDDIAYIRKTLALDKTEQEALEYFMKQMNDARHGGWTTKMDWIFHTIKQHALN
H1047R PIK3CA enzyme, sequence (P27986 whole entry partner): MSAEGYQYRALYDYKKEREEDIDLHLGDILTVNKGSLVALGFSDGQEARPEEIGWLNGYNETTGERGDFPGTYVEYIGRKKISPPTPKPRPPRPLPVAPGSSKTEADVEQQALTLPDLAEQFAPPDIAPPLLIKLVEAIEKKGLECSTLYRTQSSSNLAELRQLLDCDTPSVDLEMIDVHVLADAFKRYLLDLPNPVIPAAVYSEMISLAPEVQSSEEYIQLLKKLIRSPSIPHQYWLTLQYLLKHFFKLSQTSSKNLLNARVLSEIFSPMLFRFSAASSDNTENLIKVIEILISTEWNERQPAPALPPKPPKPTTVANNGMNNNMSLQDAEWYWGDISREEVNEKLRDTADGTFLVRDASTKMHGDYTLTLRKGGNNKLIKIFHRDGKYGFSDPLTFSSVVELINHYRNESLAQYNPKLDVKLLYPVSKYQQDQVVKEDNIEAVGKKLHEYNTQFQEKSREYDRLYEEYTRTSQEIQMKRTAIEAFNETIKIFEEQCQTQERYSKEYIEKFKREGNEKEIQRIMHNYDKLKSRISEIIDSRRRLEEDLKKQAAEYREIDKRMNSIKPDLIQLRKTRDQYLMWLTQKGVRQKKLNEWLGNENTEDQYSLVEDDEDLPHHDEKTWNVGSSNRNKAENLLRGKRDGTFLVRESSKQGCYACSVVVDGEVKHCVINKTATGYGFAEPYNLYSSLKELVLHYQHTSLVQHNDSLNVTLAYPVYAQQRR

| IC50 [µM] | SMILES |
| --- | --- |
| 10 to 100 | COc1ccc(C(=O)Nc2cc(-c3cnn(C)c3)cnc2Nc2ccccc2C)cc1 [I-126] |
| 0.5 to 1 | Cc1ccccc1Nc1ncc(C(=O)NCC2(O)CCCCC2)cc1NC(=O)c1csc2ccccc12 [I-189] |
| 10 to 100 | CNC(=O)c1cnc(Nc2ccccc2C)c(NC(=O)Cc2cccnc2)c1 [I-250] |
| 1 to 10 | Cc1ccccc1Nc1ncc(C(=O)Nc2ccccc2)cc1NC(=O)c1cc(F)cc(C(F)(F)F)c1 [I-231] |
| 10 to 100 | Cc1ccccc1Nc1ncc(-c2cnn(C)c2)cc1NC(=O)c1ccc(S(N)(=O)=O)cc1 [I-129] |
| 10 to 100 | CNC(=O)c1cnc(Nc2ccccc2C)c(NC(=O)C2CCSc3ccccc32)c1 (stereo not drawn) [I-260] |
| 10 to 100 | CNC(=O)c1cnc(Nc2ccccc2C)c(NC(=O)c2cc(F)c3[nH]ncc3c2)c1 [I-393] |
| 10 to 100 | CNc1ncc(-c2cnn(C)c2)cc1NC(=O)c1cc(F)cc(C(F)(F)F)c1 [I-71] |
| 10 to 100 | CNC(=O)c1cnc(Nc2ccccc2C)c(NC(=O)c2nn(C)c3ccccc23)c1 [I-158] |
| 10 to 100 | CNC(=O)c1cnc(Nc2ccccc2C)c(NC(=O)c2cc(F)cc3[nH]ccc23)c1 [I-392] |
| 10 to 100 | Cc1ccccc1Nc1ncc(-c2cnn(C)c2)cc1NC(=O)c1cccc(C#N)c1 [I-116] |
| 0.5 to 1 | Cc1ccccc1Nc1ncc(-c2cnn(C3CCOCC3)c2)cc1NC(=O)c1cc(F)cc(C(F)(F)F)c1 [I-88] |
| 1 to 10 | CNC(=O)c1cc(NC(=O)c2cc(F)cc(C(F)(F)F)c2)c(N(C)c2ccccc2C)cn1 [I-325] |
| 1 to 10 | Cc1ccccc1Nc1ncc(-c2cnn(C)c2)cc1NC(=O)c1ccc(Cl)c(Cl)c1 [I-104] |
| 10 to 100 | Cc1ccccc1Nc1ncc(-c2cnn(C)c2)cc1NC(=O)c1cccc2ccncc12 [I-105] |
| 1 to 10 | O=C(Nc1cc(C(=O)NC2CC(F)(F)C2)cnc1N1C(=O)NCc2ccccc21)c1cc(F)cc(C(F)(F)F)c1 [I-338] |
| 1 to 10 | Cc1ccccc1Nc1ncc(NCC(=O)O)cc1NC(=O)c1cc(F)cc(C(F)(F)F)c1 [I-179] |
| 10 to 100 | CNC(=O)c1cnc(Nc2ccccc2C)c(NCC2CC2)c1 [I-34] |
| 10 to 100 | CNC(=O)c1cnc(Nc2ccccc2C)c(NC(=O)CCc2cnccc2C(F)(F)F)c1 [I-384] |
| 1 to 10 | CNC(=O)c1cnc(Nc2cccc(OC)n2)c(NC(=O)c2csc3ccccc23)c1 [I-346] |

| IC50 [µM] | SMILES |
| --- | --- |
| 1 to 10 | Cc1ccccc1Nc1ccncc1NC(=O)c1csc2ccccc12 [I-344] |
| 10 to 100 | O=C(NC1CS(=O)(=O)C1)c1cnc(N2CCCOc3ccccc32)c(NC(=O)c2csc3ccccc23)c1 [I-277] |
| 10 to 100 | CNC(=O)N1CC[C@H](Nc2ccccc2C)[C@H](C(=O)Nc2cc(F)cc(C(F)(F)F)c2)C1 (racemic) [I-203] |
| 1 to 10 | Cc1ccccc1Nc1ncc(-c2cnn(C)c2)cc1NC(=O)c1cccc(Br)c1 [I-99] |
| 1 to 10 | Cc1ccccc1Nc1ncc(NCC(N)=O)cc1NC(=O)c1cc(F)cc(C(F)(F)F)c1 [I-186] |
| 1 to 10 | CNC(=O)c1cnc(Nc2ccccc2C)c(NC(=O)c2csc3c2CCCC3)c1 [I-340] |
| 10 to 100 | COc1cc(F)cc(C(=O)Nc2cc(-c3cnn(C)c3)cnc2Nc2ccccc2C)c1 [I-94] |
| 10 to 100 | Cc1ccccc1Nc1ncc(C(=O)N2CCCC2)cc1NC(=O)c1cc(F)cc(C(F)(F)F)c1 [I-15] |
| 10 to 100 | CNC(=O)c1cnc(Nc2ccccc2C)c(NC(=O)c2cc(F)cc3ccccc23)c1 [I-320] |
| 10 to 100 | CNC(=O)c1cnc(Nc2ccccc2C)c(NCc2ccccc2)c1 [I-23] |
| 0.5 to 1 | Cc1ccccc1Nc1ncc(C(=O)Nc2cncnc2)cc1NC(=O)c1cc(F)cc(C(F)(F)F)c1 [I-265] |
| 10 to 100 | COC(=O)c1cnc(Nc2ccc(C)cc2)c(NC(=O)c2csc3ccccc23)c1 [I-206] |
| 10 to 100 | CNC(=O)c1cnc(Nc2ccccc2C)c(NC(=O)Cc2c(F)ccc(F)c2F)c1 [I-164] |
| 10 to 100 | CNC(=O)c1cnc(Nc2ccccc2C)c(NC(=O)C2(c3ccc(C)cc3)CC2)c1 [I-160] |
| 1 to 10 | CNC(=O)c1cnc(Nc2ccccc2C)c(NC(=O)c2cccc(C(F)(F)F)c2)c1 [I-66] |
| 10 to 100 | CNC(=O)c1cnc(Nc2ccccc2C)c(NC(=O)c2cc3ccccc3o2)c1 [I-40] |
| 1 to 10 | Cc1ccccc1Nc1ncc(-c2ccc(NC(=O)OC(C)(C)C)cc2)cc1NC(=O)c1cc(F)cc(C(F)(F)F)c1 [I-80] |
| 1 to 10 | CNC(=O)c1cnc(Nc2ccccc2C)c(NC(=O)c2cc(F)cc(OC(F)F)c2)c1 [I-364] |
| 1 to 10 | COCCn1cc(NC(=O)c2csc3ccccc23)c(N2CCOc3ccccc32)cc1=O [I-271] |

Same assay, conditions: ADP-Glo biochemical PIK3CA kinase assay

| IC50 [µM] | SMILES |
| --- | --- |
| 1 to 10 | Cc1ccccc1Nc1ncc(C(=O)N[C@@H]2C3CCC(C3)[C@H]2C(=O)O)cc1NC(=O)c1csc2ccccc12 (stereo partly drawn) [I-559] |
| 10 to 100 | CNC(=O)c1cnc(Nc2ccccc2C)c(NC(=O)C(C)n2ccccc2=O)c1 (stereo not drawn) [I-428] |
| 10 to 100 | CNC(=O)c1cnc(Nc2ccccc2C)c(NC(=O)c2cccc(OC)c2F)c1 [I-454] |
| 10 to 100 | CNC(=O)c1cnc(Nc2ccccc2C)c(NC(=O)CCc2cc(Cl)ccc2Cl)c1 [I-517] |
| 1 to 10 | Cc1ccccc1Nc1ncc(C(=O)N2CC(C)(C#N)C2)cc1NC(=O)c1csc2ccccc12 [I-543] |
| 1 to 10 | CNC(=O)c1cnc(Nc2ccccc2C)c(NC(=O)c2cccc3cc(C)[nH]c23)c1 [I-421] |
| 1 to 10 | CNC(=O)c1cnc(Nc2c3c(nn2C)CCC3)c(NC(=O)c2csc3ccccc23)c1 [I-743] |
| 1 to 10 | CNC(=O)c1cnc(Nc2ccccc2C)c(NC(=O)c2ccc3cnccc3c2)c1 [I-648] |
| 10 to 100 | CNC(=O)c1cnc(Nc2ccccc2C)c(NC(=O)c2ccc(C(F)F)cn2)c1 [I-484] |
| 10 to 100 | CNC(=O)c1cnc(Nc2ccccc2C)c(NC(=O)c2ccc3occ(Cl)c3c2)c1 [I-490] |
| 10 to 100 | Nc1cnc(Nc2cc(F)ccc2Cl)c(NC(=O)c2nsc3ccccc23)c1 [I-784] |
| 1 to 10 | CNC(=O)c1cnc(Nc2ccccc2C)c(NC(=O)C2CCc3ccccc3O2)c1 (stereo not drawn) [I-649] |
| 1 to 10 | Cc1ccccc1Nc1ncc(C(=O)N[C@H]2C[C@@H](C(=O)N(C)C)C2)cc1NC(=O)c1csc2ccccc12 [I-694] |
| 10 to 100 | Nc1c2c(nn1C(=O)c1cc(F)cc(C(F)(F)F)c1)CCCC2 [I-778] |
| 1 to 10 | CNC(=O)c1cnc(Nc2cnccc2C)c(NC(=O)c2csc3ccccc23)c1 [I-730] |
| 10 to 100 | CNC(=O)c1cnc(Nc2cc(F)ccc2Cl)c(NC(=O)N2CCc3ccccc32)c1 [I-797, N-{2-[(2-chloro-5-fluorophenyl)amino]-5-(methylcarbamoyl)pyridin-3-yl}-2,3-dihydro-1H-indole-1-carboxamide] |
| 1 to 10 | Cc1ccccc1Nc1ncc(C(=O)N2CC(C)(F)C2)cc1NC(=O)c1csc2ccccc12 [I-536] |
| 1 to 10 | Cc1ccccc1Nc1ncc(C(=O)N2CCC(C)(O)C2)cc1NC(=O)c1csc2ccccc12 (stereo not drawn) [I-589] |
| 10 to 100 | CNC(=O)c1cnc(Nc2ccccc2C)c(NC(=O)c2cn(C)c3ncccc23)c1 [I-480] |
| 1 to 10 | Cc1ccccc1Nc1c(NC(=O)c2csc3ccccc23)ccc2cc[nH]c12 [I-552] |

| IC50 [µM] | SMILES |
| --- | --- |
| 10 to 100 | CNC(=O)c1cnc(Nc2ccccc2C)c(NC(=O)c2cnc3c(Cl)cccn23)c1 [I-414] |
| 10 to 100 | CNC(=O)c1cnc(Nc2ccccc2C)c(NC(=O)c2n[nH]c3ccc(C#N)cc23)c1 [I-455] |
| 10 to 100 | CNC(=O)c1cnc(Nc2ccccc2C)c(NC(=O)CCc2cc(Br)ccc2F)c1 [I-542] |
| 0.5 to 1 | CCOC(=O)[C@H]1CC[C@@H](NC(=O)c2cnc(Nc3ccccc3C)c(NC(=O)c3csc4ccccc34)c2)C1 (racemic) [I-653] |
| 10 to 100 | Nc1cnc(Nc2cc(F)ccc2Cl)c(NC(=O)c2cc(F)cc(C(F)(F)F)c2)c1 [I-780] |
| 10 to 100 | CNC(=O)c1cnc(Nc2ccccc2C)c(NC(=O)c2cc(C)nn2C(F)F)c1 [I-450] |
| 10 to 100 | CNC(=O)c1cnc(Nc2ccccc2C)c(NC(=O)c2ccc3c(cnn3C)c2)c1 [I-431] |
| 10 to 100 | CNC(=O)c1cnc(Nc2ccccc2C)c(NC(=O)c2cn[nH]c2-c2ccc(F)cc2)c1 [I-473] |
| 10 to 100 | CNC(=O)c1cnc(Nc2ccccc2C)c(NC(=O)c2cc(Cl)cc3cccnc23)c1 [I-470] |
| 1 to 10 | CNC(=O)c1cnc(Nc2ccccc2C)c(NC(=O)Cc2cc(Cl)cc(C(F)(F)F)c2)c1 [I-587] |
| 10 to 100 | CCOc1c(F)c(F)cc(C(=O)Nc2cc(C(=O)NC)cnc2Nc2ccccc2C)c1F [I-512] |
| 10 to 100 | CNC(=O)c1cnc(Nc2ccccc2C)c(NC(=O)c2ccnc3ccc(Br)cc23)c1 [I-444] |
| 10 to 100 | CNC(=O)c1cnc(Nc2ccccc2C)c(NC(=O)CCc2ccccc2F)c1 [I-437] |
| 0.1 to 0.5 | CNC(=O)c1cnc(Nc2ccccc2C)c(NC(=O)c2cc(Cl)n3ccccc23)c1 [I-449] |
| 1 to 10 | CNC(=O)c1cnc(Nc2ccc3c(c2)OCC3)c(NC(=O)c2csc3ccccc23)c1 [I-738] |
| 1 to 10 | CNC(=O)c1cnc(Nc2ccccc2C)c(NC(=O)c2ccc(CO)c(F)c2)c1 [I-567] |
| 10 to 100 | CNC(=O)c1cnc(Nc2ccccc2C)c(NC(=O)c2cc3cc(F)ccc3[nH]2)c1 [I-425] |
| 1 to 10 | Cc1ccccc1Nc1ncc(C(=O)N2CC(C(=O)O)C2)cc1NC(=O)c1csc2ccccc12 [I-600] |
| 1 to 10 | CNC(=O)c1cnc(Nc2ccccc2C)c(NC(=O)Cc2cc3cccnc3cc2F)c1 [I-557] |
